Results: paper PMC11313180 (International Journal of Molecular Sciences, 2024)

Legend:
[1] = tested on: MCF-7; assay: Mitochondrial potential assay (TMRE), MCF-7; format: cell-based, human; conditions: 1 mM; 2 h, 6 h, 24 h, 48 h
Description: The analysis of mitochondrial potential was carried out as previously described with minor modifications concerning fluorescence measurement. […] After an incubation time of 2 h, 6 h, 24 h, and 48 h, medium was removed, and cells were washed with PBS and then stained for 30 min at 37 °C with 50 µL staining reagent containing 500 nM tetramethyl rhodamine ethylester as perchlorate (TMRE, BIOTREND chemicals GmbH, Cologne) and Hoechst 33342 (5 µg/mL). A quantity of 20 µM CCCP (carbonyl cyanide-m-chlorophenylhydrazone, Sigma-Aldrich, München, Germany) served as control for mitochondrial potential breakdown. Fluorescence was measured by Leica DMi8 Thunder Imager (Leica Microsystems CMS GmbH, Wetzlar, Germany).

[2] = tested on: HDAC8; conditions: obtained by fitting Lechner et al. source data to a sigmoidal concentration–effect model; ref [21]; read-out: IC50 HDAC 8, Lechner et al.; cited from earlier work
[3] = target: T1, HDAC4 (Homo sapiens, UniProt P56524); assay: Enzyme HDAC inhibition assay, HDAC4; format: biochemical; conditions: IC50 ± SEM; three experiments in duplicates; read-out: IC50 HDAC 4
T1 construct: purchased Reaction Biology Corp. KDA-21-279
Description: (§4) All human recombinant enzymes were purchased from Reaction Biology Corp. (Malvern, PA, USA).

[4] = tested on: MCF-7; assay: Immunoblotting, MCF-7; format: cell-based, human; conditions: 48 h
Description: (§1) A quantity of 20 or 40 µg of total protein as well as, from PageRuler Prestained Protein Ladder, 10–180 kDA (Thermo Scientific, Wesel, Germany), were resolved by SDS-Page (12% polyacrylamide gel) and transferred to polyvinylidene fluoride membrane (Millipore Corporation, Billerica, MA, USA). Blots were incubated with primary antibodies against acetylated a -tubulin (Cat. No. sc-23950), a -tubulin (Cat. No. sc-8035) (Santa Cruz Biotechnology, Heidelberg, Germany), acetyl histone h3 (Cat. No. 39140) and histone H3 (Cat. No. NB100-1669), ß-actine (Cat. No. sc-47778), p21 (AF1047), c-myk (Cat. No. MAB3696), APAF1 (Cat. No. MAB868), BIM (Cat. No. NBP1-76936), FOXO1 (Cat. No. C29H4), BCL-2 (Cat. No. AF810), and survivin (Cat. No. AF886). After another one-hour incubation with the appropriate HRP-conjugated secondary antibody, proteins were visualized by Intas Imager (Intas, Göttingen, Germany) using luminol reagent (Santa Cruz Biotechnology, Heidelberg, Germany).

[5] = tested on: T47D; assay: Immunoblotting, T47D; format: cell-based, human; conditions: 48 h
Description: as §1

[6] = target: HDAC2 (Homo sapiens, UniProt Q92769); assay: Enzyme HDAC inhibition assay, HDAC2; conditions: read-out: IC50 HDAC 2; IC50 ± SEM; three experiments in duplicates
Description: as §4

[7] = tested on: MCF-7; assay: Long-term (10 days) live/dead proliferation assay, calcein AM and Hoechst 33342, MCF-7; format: cell-based, human; conditions: 1 µM exemestane, 1 mM (R)-α-lipoic acid
Description: (§2) Cells were seeded on day one in 96-well plates. […] Then, cells were stained with calcein AM (Millipore Corporation, Billerica, MA, USA) and Hoechst 33342 (Tocris Bioscience, Bristol, UK) for 30 min and fluorescence images monitored by Leica DMi8 Thunder Imager (Leica Microsystems CMS GmbH, Wetzlar, Germany). Five images per well were monitored randomly. Calcein AM- and Hoechst 33342-stained area of the images (i.e., live proliferating cells) were evaluated.

[8] = tested on: T47D; assay: Long-term (10 days) live/dead proliferation assay, calcein AM and Hoechst 33342, T47D; format: cell-based, human; conditions: 1 µM exemestane, 1 mM (R)-α-lipoic acid
Description: as §2

[9] = tested on: HDAC; conditions: up to 500 µM (max. concentration tested); ref [21]; cited from earlier work
[10] = tested on: caspase 3/7 in MCF-7 cells; assay: Caspase 3/7 activation assay, MCF-7; format: cell-based, human; conditions: 24 h; 1 µM exemestane, 0.5 mM or 1 mM (R)-α-lipoic acid
Description: (§3) To analyze the compound-induced activation of capases 3 and 7, the CellEvent caspase 3/7 green detection reagent (Thermo Scientific, Wesel, Germany) was used according to the manufacturer’s instructions. […] After 24 h incubation, medium was removed, and cells were stained with 50 µL of CellEvent caspase 3/7 green detection reagent (2 µM in PBS supplemented with 5% heat-inactivated FBS). Cells were incubated for 30 min at 37 °C in a humidified incubator before imaging by using the Thermo Fisher ArrayScan XTI high content screening (HCS) system with a 10× magnification (Thermo Scientific). Hoechst 33342 was added for nuclei staining.

[11] = tested on: caspase 3/7 in T47D cells; assay: Caspase 3/7 activation assay, T47D; format: cell-based, human; conditions: 24 h; 1 µM exemestane, 0.5 mM or 1 mM (R)-α-lipoic acid
Description: as §3

[12] = 1 mM (R)-α-lipoic acid, 1 µM exemestane

T1 sequence (P56524 whole entry): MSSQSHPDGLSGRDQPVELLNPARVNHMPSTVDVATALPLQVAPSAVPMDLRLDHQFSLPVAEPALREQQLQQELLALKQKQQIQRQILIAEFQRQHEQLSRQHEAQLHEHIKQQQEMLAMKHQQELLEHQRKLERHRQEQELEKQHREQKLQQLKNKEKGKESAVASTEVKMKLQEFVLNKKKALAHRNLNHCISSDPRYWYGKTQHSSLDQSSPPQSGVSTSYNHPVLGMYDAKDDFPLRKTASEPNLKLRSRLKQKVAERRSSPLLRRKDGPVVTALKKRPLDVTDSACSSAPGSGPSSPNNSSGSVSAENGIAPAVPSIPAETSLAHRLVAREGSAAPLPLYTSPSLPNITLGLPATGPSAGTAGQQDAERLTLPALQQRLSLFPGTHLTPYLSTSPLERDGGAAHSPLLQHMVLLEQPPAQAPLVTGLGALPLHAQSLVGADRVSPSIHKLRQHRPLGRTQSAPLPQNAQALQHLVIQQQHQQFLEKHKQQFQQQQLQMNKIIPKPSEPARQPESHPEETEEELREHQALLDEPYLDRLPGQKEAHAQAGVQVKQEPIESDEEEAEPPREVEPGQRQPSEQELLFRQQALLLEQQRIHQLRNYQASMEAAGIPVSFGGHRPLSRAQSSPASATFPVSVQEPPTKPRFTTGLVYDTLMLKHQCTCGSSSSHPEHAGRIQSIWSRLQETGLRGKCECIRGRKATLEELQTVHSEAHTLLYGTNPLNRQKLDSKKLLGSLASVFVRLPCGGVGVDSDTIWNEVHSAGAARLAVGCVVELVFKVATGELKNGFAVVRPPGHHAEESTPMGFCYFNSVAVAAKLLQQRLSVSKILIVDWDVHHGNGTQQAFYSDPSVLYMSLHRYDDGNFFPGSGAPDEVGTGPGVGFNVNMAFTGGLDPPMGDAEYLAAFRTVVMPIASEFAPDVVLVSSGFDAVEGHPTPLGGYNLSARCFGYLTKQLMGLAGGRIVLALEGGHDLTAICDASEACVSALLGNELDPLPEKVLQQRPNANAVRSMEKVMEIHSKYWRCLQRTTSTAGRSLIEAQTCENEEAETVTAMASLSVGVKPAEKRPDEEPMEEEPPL
Sequence of HDAC2 (Q92769 whole entry): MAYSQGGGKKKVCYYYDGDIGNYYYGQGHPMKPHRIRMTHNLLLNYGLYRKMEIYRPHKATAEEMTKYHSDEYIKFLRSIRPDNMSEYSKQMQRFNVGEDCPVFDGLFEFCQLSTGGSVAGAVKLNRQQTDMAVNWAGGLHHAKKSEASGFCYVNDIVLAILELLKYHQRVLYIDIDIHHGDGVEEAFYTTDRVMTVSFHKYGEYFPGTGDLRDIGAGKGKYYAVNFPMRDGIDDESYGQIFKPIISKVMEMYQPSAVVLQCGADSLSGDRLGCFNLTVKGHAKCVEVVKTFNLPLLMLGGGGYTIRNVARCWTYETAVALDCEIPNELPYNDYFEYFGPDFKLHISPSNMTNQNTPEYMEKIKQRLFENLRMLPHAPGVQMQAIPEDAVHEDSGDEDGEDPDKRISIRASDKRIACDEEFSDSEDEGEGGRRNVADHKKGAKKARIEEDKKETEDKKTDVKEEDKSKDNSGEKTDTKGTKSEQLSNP

Structure (SMILES)	mitochondrial potential and structure (TMRE) [1]	IC50 [2] [µM]	IC50 [3] [µM]	expression of APAF-1 and BIM, MCF-7 [4]	expression of FOXO1, MCF-7 [4]	acetylation of histone H3 and alpha-tubulin (western blot), MCF-7 [4, 12]	expression of p21, MCF-7 [4, 12]	expression of survivin and c-myk, MCF-7 [4, 12]	expression of APAF-1 and BIM, T47D [5]	expression of FOXO1, T47D [5]	acetylation of histone H3 and alpha-tubulin (western blot), T47D [5, 12]	expression of p21, T47D [5, 12]	expression of survivin and c-myk, T47D [5, 12]	IC50 [6] [µM]	proliferation and doubling time over 10 days, MCF-7 [7]	proliferation and doubling time over 10 days, T47D [8]	HDAC inhibitory activity [9]	caspase 3/7 activation, MCF-7 [10]	caspase 3/7 activation, T47D [11]
O=C(O)CCCC[C@@H]1CCSS1 [(R)-α-lipoic acid]	mitochondrial fusion up to 24 h followed by mitochondrial fission and inhibition of proliferation	127	168 ± 19.3	upregulated	strongly upregulated	increased acetylation of histone and of alpha-tubulin	moderately upregulated	strongly downregulated	upregulated	strongly upregulated	increased acetylation of histone and of alpha-tubulin	moderately upregulated	strongly downregulated	208 ± 34.9	strong reduction in proliferation and thus increase in doubling time	reduced proliferation and increased doubling time strongly	–	–	–
O=C(O)CCCC[C@H]1CCSS1 [(S)-α-lipoic acid]	–	> 500	324 ± 39.9	–	–	–	–	–	–	–	–	–	–	299 ± 34.6	–	–	no HDAC inhibitory activity	slightly lower than (R)-α-lipoic acid	slightly lower than (R)-α-lipoic acid
